Assay results published in patent US9750753B1, “Method of treating diseases associated with LRRK2 mutation using hexachlorophene” (University of South Florida, priority 2014, dated 2017).
Entries after “also recorded” stand apart in the source; their conditions may differ.

How the values were obtained:
[1] = test system: rats; settings: cited from earlier work; for protection from toxicity induced by B10: pre-treatment prior to administration of B10, rats
[2] = test system: LRRK2; settings: cited from earlier work
[3] = test system: N9 cells
[4] = biological target: T1, mutant (G2019S) LRRK2 (Homo sapiens, UniProt Q5S007, G2019S); test: Western blot of overexpressed mutant (G2019S) LRRK2 in transfected HeLa cells; assay type: cell-based; settings: 1 μM, 24 hours, vs vehicle DMSO control
T1 construct: expressed in transfected cells; host or cells: HeLa
Description: (§1) HeLa cells overexpressing wild-type or mutant human LRRK2 protein and N9 cells expressing endogenous LRRK2 protein were treated with hexachlorophene (labeled as B10 in FIGS. 1 and 2) for 24 hours.
(§2) HeLa cells were grown in DMEM with 10% FBS and 1% penicillin and streptomycin. Cells were transfected with constructs for LRRK2 and the G2019S mutant using Lipofectamine 2000. HeLa cells were used due to the ease of transfection with LRRK2 and its mutants.
(§3) Samples were harvested by using MPER mammalian extraction buffer (Pierce, Thermo Scientific) containing protease and phosphatase inhibitors. After protein estimation using a BCA kit (Pierce, Thermo Scientific), equal amounts of protein from each sample was subjected to gel electrophoresis and western blotting. Phospho (p-) and Total (T-) LRRK2 (abcam) and GAPDH (Meridian Life Sciences) antibodies were used to detect phospho and total LRRK2 and GAPDH, respectively. Analysis of changes in the LRRK2 level was performed using Scion Image software.

[5] = test system: synuclein; test: Synuclein level in HeLa cells (selectivity control); assay type: cell-based; settings: 1 μM
[6] = test system: rats; settings: oral; cited from earlier work
[7] = test system: primary neuronal cultures; settings: cited from earlier work
[8] = biological target: T2, wild-type human LRRK2 protein (Homo sapiens, UniProt Q5S007); test: Western blot of overexpressed wild-type LRRK2 in transfected HeLa cells; assay type: cell-based
T2 construct: expressed in transfected cells; host or cells: HeLa
Description: as §1, §2, §3

[9] = dose of about 10 mg/kg, transgenic TDP43 mouse model; cited from earlier work
[10] = biological target: amyloid beta (Aβ) (Homo sapiens, UniProt P05067); settings: cited from earlier work
[11] = test system: HeLa cells
[12] = biological target: T3, endogenous LRRK2 protein (Mus musculus, UniProt Q5S006); test: Western blot of endogenous LRRK2 in N9 cells; assay type: cell-based; settings: 1 μM, 24 hours
T3 construct: N9 cells were used because they express high levels of endogenous LRRK2; endogenous in cells; host or cells: N9
Description: as §1
N9 cells were grown in DMEM supplemented with 10% FBS, 1% penicillin and streptomycin, and 2% L-glutamine. N9 cells were used because they express high levels of endogenous LRRK2. They are very difficult to transfect and were only used to study the effect of hexachlorophene on wild-type LRRK2.
as §3

[13] = test system: Wnt-β-catenin signaling pathway; settings: B lymphoma cells; cited from earlier work

T2 sequence (Q5S007 whole entry): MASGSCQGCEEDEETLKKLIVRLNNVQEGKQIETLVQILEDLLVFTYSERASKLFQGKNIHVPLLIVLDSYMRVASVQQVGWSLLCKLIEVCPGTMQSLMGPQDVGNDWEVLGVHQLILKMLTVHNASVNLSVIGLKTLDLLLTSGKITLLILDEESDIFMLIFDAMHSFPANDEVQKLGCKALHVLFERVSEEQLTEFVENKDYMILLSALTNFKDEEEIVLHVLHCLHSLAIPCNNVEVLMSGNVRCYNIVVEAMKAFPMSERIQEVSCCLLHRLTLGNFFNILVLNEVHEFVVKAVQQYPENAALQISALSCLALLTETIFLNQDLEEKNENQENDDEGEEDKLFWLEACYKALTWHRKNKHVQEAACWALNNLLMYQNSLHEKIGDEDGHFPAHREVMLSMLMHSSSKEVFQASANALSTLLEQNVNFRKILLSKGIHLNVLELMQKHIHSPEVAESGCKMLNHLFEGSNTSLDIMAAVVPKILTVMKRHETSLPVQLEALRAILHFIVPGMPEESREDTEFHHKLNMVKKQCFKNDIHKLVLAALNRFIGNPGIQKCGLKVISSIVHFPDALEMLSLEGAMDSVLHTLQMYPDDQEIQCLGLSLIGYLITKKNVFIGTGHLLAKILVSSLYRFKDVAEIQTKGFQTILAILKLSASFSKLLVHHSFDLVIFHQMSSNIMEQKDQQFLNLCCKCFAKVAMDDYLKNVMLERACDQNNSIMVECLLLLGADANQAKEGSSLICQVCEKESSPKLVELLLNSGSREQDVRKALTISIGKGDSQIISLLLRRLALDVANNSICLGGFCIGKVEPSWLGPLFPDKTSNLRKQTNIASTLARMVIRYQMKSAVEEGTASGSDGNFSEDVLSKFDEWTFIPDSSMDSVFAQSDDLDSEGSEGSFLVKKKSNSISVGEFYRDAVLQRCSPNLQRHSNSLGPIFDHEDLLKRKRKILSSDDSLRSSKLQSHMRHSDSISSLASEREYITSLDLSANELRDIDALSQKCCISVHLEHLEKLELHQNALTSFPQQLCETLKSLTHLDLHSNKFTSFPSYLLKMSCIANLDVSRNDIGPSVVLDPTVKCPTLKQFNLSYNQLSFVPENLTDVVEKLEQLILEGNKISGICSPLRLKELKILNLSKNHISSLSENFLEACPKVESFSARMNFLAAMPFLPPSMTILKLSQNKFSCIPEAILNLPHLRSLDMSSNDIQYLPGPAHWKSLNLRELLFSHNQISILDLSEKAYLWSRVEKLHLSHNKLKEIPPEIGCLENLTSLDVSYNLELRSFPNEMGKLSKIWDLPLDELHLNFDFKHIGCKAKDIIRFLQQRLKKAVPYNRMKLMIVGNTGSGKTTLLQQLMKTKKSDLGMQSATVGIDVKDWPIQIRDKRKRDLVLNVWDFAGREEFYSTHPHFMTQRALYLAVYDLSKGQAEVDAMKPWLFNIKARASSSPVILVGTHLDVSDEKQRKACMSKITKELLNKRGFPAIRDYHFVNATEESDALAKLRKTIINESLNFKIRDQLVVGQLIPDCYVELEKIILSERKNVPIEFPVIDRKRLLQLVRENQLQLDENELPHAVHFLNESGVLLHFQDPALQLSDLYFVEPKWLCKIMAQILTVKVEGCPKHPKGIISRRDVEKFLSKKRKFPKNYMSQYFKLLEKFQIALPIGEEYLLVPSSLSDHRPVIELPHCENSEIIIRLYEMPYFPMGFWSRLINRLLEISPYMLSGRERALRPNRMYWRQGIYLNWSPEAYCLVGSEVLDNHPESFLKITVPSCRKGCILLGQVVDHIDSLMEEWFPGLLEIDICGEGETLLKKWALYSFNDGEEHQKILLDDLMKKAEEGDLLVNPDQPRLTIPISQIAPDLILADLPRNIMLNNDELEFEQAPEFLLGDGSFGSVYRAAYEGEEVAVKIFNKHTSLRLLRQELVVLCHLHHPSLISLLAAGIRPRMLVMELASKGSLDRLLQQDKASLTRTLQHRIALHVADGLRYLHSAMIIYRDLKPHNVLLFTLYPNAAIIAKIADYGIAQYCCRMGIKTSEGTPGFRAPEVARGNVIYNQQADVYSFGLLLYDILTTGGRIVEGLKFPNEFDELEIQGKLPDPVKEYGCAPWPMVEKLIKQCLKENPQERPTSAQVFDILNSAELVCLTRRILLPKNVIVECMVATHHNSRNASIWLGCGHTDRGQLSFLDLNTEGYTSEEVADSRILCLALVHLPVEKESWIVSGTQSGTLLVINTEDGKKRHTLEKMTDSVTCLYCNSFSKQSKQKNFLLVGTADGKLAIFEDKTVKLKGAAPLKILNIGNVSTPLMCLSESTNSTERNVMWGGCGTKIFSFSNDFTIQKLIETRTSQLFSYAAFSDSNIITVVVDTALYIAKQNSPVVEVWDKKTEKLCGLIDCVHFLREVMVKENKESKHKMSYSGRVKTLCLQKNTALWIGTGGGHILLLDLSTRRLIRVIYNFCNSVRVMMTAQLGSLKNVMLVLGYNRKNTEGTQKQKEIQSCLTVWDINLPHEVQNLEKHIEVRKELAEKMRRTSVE
T3 sequence (Q5S006 whole entry): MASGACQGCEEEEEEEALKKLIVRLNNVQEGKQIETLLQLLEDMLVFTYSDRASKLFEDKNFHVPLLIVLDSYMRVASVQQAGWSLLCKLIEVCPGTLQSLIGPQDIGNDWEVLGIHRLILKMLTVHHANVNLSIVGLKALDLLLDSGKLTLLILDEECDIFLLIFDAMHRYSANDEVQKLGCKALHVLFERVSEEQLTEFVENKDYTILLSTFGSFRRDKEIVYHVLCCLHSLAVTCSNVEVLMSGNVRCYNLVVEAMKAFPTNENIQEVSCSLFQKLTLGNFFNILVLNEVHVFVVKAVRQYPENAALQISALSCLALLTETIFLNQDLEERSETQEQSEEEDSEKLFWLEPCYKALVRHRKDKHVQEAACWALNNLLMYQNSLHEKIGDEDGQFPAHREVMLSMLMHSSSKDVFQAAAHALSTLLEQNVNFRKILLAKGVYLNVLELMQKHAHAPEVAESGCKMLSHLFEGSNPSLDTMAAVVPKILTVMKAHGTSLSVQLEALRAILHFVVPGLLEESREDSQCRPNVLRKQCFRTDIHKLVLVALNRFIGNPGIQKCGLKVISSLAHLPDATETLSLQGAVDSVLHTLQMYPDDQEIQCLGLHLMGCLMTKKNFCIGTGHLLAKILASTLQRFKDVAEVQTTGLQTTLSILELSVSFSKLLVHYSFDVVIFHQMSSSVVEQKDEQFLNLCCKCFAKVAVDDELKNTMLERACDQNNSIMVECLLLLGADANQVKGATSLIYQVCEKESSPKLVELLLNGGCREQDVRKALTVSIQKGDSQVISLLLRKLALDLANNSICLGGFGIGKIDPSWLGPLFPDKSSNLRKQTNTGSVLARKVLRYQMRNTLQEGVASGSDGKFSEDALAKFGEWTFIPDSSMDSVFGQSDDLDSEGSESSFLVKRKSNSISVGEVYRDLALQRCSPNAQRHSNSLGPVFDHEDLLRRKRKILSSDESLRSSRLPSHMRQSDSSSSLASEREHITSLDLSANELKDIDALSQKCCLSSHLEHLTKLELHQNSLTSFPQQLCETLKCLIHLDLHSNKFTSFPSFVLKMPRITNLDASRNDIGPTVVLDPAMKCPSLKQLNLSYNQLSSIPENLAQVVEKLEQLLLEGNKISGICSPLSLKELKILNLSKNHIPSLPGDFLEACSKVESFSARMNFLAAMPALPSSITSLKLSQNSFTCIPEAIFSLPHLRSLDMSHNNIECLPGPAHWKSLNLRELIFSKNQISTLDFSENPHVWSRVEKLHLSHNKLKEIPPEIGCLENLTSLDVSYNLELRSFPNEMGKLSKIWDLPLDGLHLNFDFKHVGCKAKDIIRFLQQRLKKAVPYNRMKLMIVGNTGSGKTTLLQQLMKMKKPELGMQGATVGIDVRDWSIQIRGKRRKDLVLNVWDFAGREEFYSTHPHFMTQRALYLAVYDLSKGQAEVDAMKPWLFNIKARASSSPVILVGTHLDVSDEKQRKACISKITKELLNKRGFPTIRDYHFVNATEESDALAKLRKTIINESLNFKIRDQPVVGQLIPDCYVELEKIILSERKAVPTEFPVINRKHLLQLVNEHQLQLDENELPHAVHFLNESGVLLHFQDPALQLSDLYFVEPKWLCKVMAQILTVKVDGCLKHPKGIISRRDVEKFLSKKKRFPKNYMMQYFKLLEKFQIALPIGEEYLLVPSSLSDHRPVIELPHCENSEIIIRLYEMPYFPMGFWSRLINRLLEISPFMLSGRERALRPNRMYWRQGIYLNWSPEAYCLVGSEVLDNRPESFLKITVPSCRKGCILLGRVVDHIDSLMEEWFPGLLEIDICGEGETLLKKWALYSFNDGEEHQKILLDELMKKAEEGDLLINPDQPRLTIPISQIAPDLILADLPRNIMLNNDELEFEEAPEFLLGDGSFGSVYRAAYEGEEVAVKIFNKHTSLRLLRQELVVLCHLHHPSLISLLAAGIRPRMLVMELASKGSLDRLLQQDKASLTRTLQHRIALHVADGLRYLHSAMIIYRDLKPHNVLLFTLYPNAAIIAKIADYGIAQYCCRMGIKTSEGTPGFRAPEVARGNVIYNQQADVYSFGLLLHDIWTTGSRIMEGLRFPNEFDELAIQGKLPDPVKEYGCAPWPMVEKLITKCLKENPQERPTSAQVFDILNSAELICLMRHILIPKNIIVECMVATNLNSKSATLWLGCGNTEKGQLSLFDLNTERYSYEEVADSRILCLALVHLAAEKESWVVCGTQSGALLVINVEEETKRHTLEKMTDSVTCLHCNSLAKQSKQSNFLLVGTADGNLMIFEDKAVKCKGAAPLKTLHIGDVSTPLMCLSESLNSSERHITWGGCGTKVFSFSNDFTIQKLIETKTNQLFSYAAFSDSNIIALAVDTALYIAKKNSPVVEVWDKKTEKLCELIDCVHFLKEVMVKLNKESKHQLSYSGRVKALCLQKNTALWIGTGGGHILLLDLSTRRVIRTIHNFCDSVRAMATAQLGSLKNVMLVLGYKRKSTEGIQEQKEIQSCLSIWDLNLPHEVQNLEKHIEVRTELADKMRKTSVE
T1 sequence (Q5S007 whole entry G2019S): as the sequence (Q5S007 whole entry) above, with G2019S counted along it
Sequence of amyloid beta (Aβ) (P05067 672-713 limits assumed): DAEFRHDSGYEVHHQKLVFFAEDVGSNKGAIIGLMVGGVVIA

## CCOc1ccc2c(c1)C(C)=CC(C)(C)N2 [ethoxyquin]
[1]
  protection from toxicity induced by B10: protects

## CC1=C(CO)C(=O)O[C@@H]([C@@H](C)[C@H]2CC[C@H]3[C@@H]4C[C@H]5O[C@]56[C@@H](O)C=CC(=O)[C@]6(C)[C@H]4CC[C@]23C)C1 [withaferin A]
[2]; WA in the presence of celastrol, additive manner
  clearance of LRRK2: enhanced
[2]; compound alone, dose and time dependent manner
  LRRK2 levels in cells: reduced

## CCCC(C(=O)OCCN(CC)CC)(c1ccccc1)c1ccccc1.Cl [SKF-525A, 2-diethylaminoethyl-2,2-diphenylvalerate-Hcl]
[1]; oral vs ip administration of the pre-treatment agent
  protective effect by route of administration: only occurred upon oral administration
[1]
  protection from toxicity induced by B10: lessened toxicity

## Oc1c(Cl)cc(Cl)c(Cl)c1Cc1c(O)c(Cl)cc(Cl)c1Cl [hexachlorophene, Hexachlorophene]
[3]
  cell death (LDH release): minimal amounts of cell death
[4]
  overexpressed mutant (G2019S) LRRK2 level: selectively reduces; also recorded: decreased
[5]
  effect on synuclein: does not affect
[6]
  LD50: 66 mg/kg
[7]
  protection from Aβ-induced toxicity: protect
[8]; HeLa cells, 1 μM, 24 hours, vs vehicle DMSO control
  overexpressed wild-type LRRK2 level: selectively reduces; also recorded: decreased
[8]; cell line not stated (HeLa and N9 cells used)
  period of maximal effect on LRRK2 levels: 24 h
[9]
  brain permeability: 50%
[10]
  effect on Aβ fibril formation: inhibit
[11]
  cell death (LDH release): minimal amounts of cell death
[12]
  endogenous pLRRK2 level: reduces
  expression of endogenous LRRK2: reduces
[13]
  effect on Wnt-β-catenin signaling pathway: inhibit

## C[N+](C)(C)C[C@H](O)CC(=O)[O-] [L-carnitine]
[1]
  protection from toxicity induced by B10: protected
